Source: patent US9566265B2, “Carbazole compounds and therapeutic uses of the compounds” (Incuron, LLC, priority 2008, dated 2017)
Values after ≈ are worked out from the molar mass of the structure shown. Read-outs that look alike come from different tables or passages of the source.

Legend:
C. metapsilosis = assay: in vitro susceptibility CLSI M27A3, MIC; format: cell-based; conditions: Lodderomyces metapsilosis, strain 2006-113, WT, Echinocandin cross-reduced susceptibility
Text: (§1) (12): 1 C. orthopsilosis (981224), 1 C. metapsilosis (2006-113), C. parapsilosis (ATCC 22019 CLSI control), and C. guilliermondii (ATCC6260) (13).

C. guilliermondii = assay: in vitro susceptibility CLSI M27A3, MIC; format: cell-based; conditions: Meyerozyma guilliermondii, strain ATCC6260, WT, Echinocandin cross-reduced susceptibility
Text: as §1

C. orthopsilosis = assay: in vitro susceptibility CLSI M27A3, MIC; format: cell-based; conditions: Lodderomyces orthopsilosis, strain 981224, WT, Echinocandin cross-reduced susceptibility
Text: as §1

C. parapsilosis = assay: in vitro susceptibility CLSI M27A3, MIC; format: cell-based; conditions: Lodderomyces parapsilosis, ATCC22019, strain ATCC 22019, WT, Echinocandin cross-reduced susceptibility
Text: as §1

[1] = system: Af293 strain of A. fumigatus; assay: XTT viability assay; format: cell-based, Aspergillus fumigatus
Method: This strain was selected because it is one of the best characterized strains and was the strain used for sequencing the A. fumigatus genome. XTT viability assay is based on the reduction of the tetrazolium salt (XTT) in the presence of menadione as an electron-coupling agent. There is a relationship between the number of viable fungi and the amount of XTT reduction (16).
The same methods previously described in performing the XTT assay (17) were used. Af293 conidia were plated on Sabouraud BHI slants with chloramphenicol and gentamicin (Becton Dickinson, Md.), incubated for 7 to 10 days at room temperature, and harvested by washing the slant with 10 ml of 0.05% Tween 20 in normal saline (NS). The conidial suspension then was passed through a 100-μm filter, counted on a hemacytometer, and diluted to 2.0×10^6 CFU/ml. Conidia then were diluted 1:50 in MOPS (morpholinepropanesulfonic acid)-buffered RPMI (pH 7.0). A stock solution of Example 15 dissolved in DMSO was used. […] Following the addition of drug-containing medium to each well, the conidial suspension (100 μl) was added (t=0 h). Control wells contained conidia, medium, and vehicle without drug. Blank wells consisted of medium only without conidia. […] One hundred microliters of the supernatant was transferred to a new plate, and the optical density at 450 nm (OD450) was determined by using a Labsystems Multiskan Plus plate reader. […]

CCN(CC)CCn1c2ccc3c(c2c2c4c(ccc21)C(=O)CC4)CCC3=O [Example 15]
MIC (C. metapsilosis; read-out: MIC* (24 hs)): 0.16 µM (≈ 0.0599 µg/mL)
MIC (C. metapsilosis; read-out: MIC* (48 hs)): 0.16 µM (≈ 0.0599 µg/mL)
MIC (C. guilliermondii; read-out: MIC* (24 hs)): 0.08 µM (≈ 0.03 µg/mL)
MIC (C. guilliermondii; read-out: MIC* (48 hs)): 0.16 µM (≈ 0.0599 µg/mL)
MIC (C. orthopsilosis; read-out: MIC* (24 hs)): 0.16 µM (≈ 0.0599 µg/mL)
MIC (C. orthopsilosis; read-out: MIC* (48 hs)): 0.16 µM (≈ 0.0599 µg/mL)
MIC (C. parapsilosis; read-out: MIC* (24 hs)): 0.08 µM (≈ 0.03 µg/mL)
MIC (C. parapsilosis; read-out: MIC* (48 hs)): 0.08 µM (≈ 0.03 µg/mL)
IC50 ([1]; Aspergillus fumigatus, XTT assay at 24 h): ~2500 nM
concentration for complete suppression of fungal growth ([1]; visual inspection of the wells): greater than 12.5 μM
